A value given as a limit tells only on which side of the number the result lay.

Usually melting point stands for the temperature of the solid-liquid transition. `O=C(O)CCCCCOc1cc(-c2ccccc2)cc(-c2ccccc2)n1`: the melting point lay in the range of 87 to 88 °C.

Compound `Cc1nc2c(O)nc3ccccc3c2n1C` returned a melting point greater than 300 °C.

For the compound `CCOC(=O)CN(c1ccncc1F)n1ccc2ccccc21`, the melting point was 86 to 87 °C.

As to `O=[N+]([O-])c1cccc(Oc2ccc(Oc3cccc([N+](=O)[O-])c3)cc2)c1`, the melting point was in the range of 158 to 160 °C.

In the case of `CCCSc1ncc(CCC(=O)O)n1Cc1ccccc1Cl`, the melting point fell in the range of 169 to 170 °C.

As to `COC(=O)C1=C(CCc2cccs2)NC(CC(=O)N2CCN(C)CC2)=C(C(=O)OC)C1c1c(Cl)cccc1Cl` (stereo unspecified), the melting point lay within 142 to 145 °C.

Regarding `CN(CP(=O)(O)O)C1CCS(=O)(=O)C1` (stereo unspecified), the melting point lay within 222 to 225 °C.

With `O=C(CCl)c1ccc2cc(O)c(O)cc2c1`, the melting point is greater than 320 °C.

In the case of `CCOP(=O)(OCC)c1sc2ccccc2c1P(=O)(OCC)OCC`, the melting point is 67 °C.

Take `COc1ccc(COc2ccc(C(=O)NC[C@@H](C(=O)NO)N3CCN(S(C)(=O)=O)CC3)cc2)cc1`: the melting point is 148 °C.

Take `COC(=O)c1cnc(CO)n1C(c1ccccc1)c1ccccc1`: the melting point is 160 °C.

Regarding `Cc1cc(N)c(C(=O)O)cc1F`, the melting point was 201 to 202 °C.

On to `NC(=O)c1cc(N)c(Oc2ccccc2)c(S(N)(=O)=O)c1`, for which the melting point lay within 291 to 292 °C.

`CCOC(=O)c1cnc2cc(OCc3ccccc3)c(OCc3ccccc3)cn2c1=O` registered a melting point of 175 °C.

For `CC(C)[C@H](NC(=O)OCc1ccccc1)C(=O)N[C@@H](Cc1ccccc1)C(=O)CSCc1ccco1`, the melting point was in the range of 122 to 125 °C.

Regarding `Nc1ccc(OCc2nnco2)cc1`, the melting point was in the range of 56 to 57 °C.

Compound `CCOC(=O)CN(Cc1ccccc1)C(=O)Cn1c2cccc(OCc3ccccc3)c2c2c(COC)c(C(=O)OC(C)C)ncc21` came in with a melting point of 122 °C.

In turn, `COc1ccc2c(c1OC)CCN(CCc1ccc(NC(=O)c3cccc4c(=O)c5cccc(OC)c5[nH]c34)cc1)C2` had a melting point of 235 to 237 °C.

Take `CN1CCN(c2ncnc3oc(-c4ccc([N+](=O)[O-])cc4)c(-c4ccc(F)cc4)c23)CC1`: the melting point is greater than 250 °C.

For `CCOC(=O)C1(NC(C)=O)CC2c3cc(C)ccc3Oc3ccccc3N2C1=O` (stereo unspecified), the melting point was in the range of 104 to 108 °C.

`COc1ccc(COc2cccc(C#CC(=O)c3ccccc3)c2)cc1` yielded a melting point of 79 to 80 °C.

`Nn1cccc1C(=O)c1ccccc1F` gave a melting point of 44 to 47 °C.

Compound `CCN(CC)c1c(Cl)cc(C(O)CNC(C)(C)C)cc1Cl` (stereo unspecified) registered a melting point of 93 to 96 °C.

`COc1cc(COc2cc(/C=C/C(=O)O)n(-c3ccccc3)n2)ccc1OCc1nc(-c2ccco2)oc1C`: the melting point was 191 to 192 °C.

For `COc1ccc(C2(C#Cc3ccnc(S(C)(=O)=O)n3)CCC(=O)CC2)cc1OC1CCCC1`, the melting point lay in the range of 60 to 64 °C.

Regarding `COc1ccc2c(c1)C(c1ccc([N+](=O)[O-])cc1)=Nn1c(C)nnc1C2`, the melting point was in the range of 192 to 194 °C.

`COc1cc2c(cc1OC)-c1c(O)c(OC)cc3c1C(C2)CN(C(=O)C(F)(F)F)C3` (stereo unspecified) gave a melting point of 210 to 217 °C.

Regarding `Cc1cc(C)nc(NCSC(=S)N2CCOCC2)n1`, the melting point lay within 119 to 121 °C.

`CC(C)OC(=O)Cc1ccc2c(c1)C(=O)c1ccccc1CO2` showed a melting point of 67 to 68.5 °C.

`Cc1ncccc1C(C#N)N1CCN(C(=O)CC(NC(=O)c2cccc(OCc3ccc4ccccc4n3)c2)c2ccccc2)CC1` (stereo unspecified) gave a melting point of 101 to 104 °C.

`CCOC(=O)c1c(C)nc(N2CCN(c3ccccc3)CC2)c2nccnc12` displayed a melting point of 85 to 87 °C.

With `CCc1cc(CCCOc2c(C)cc(-c3noc(C)n3)cc2C)on1`, the melting point is 85 to 86 °C.

In the case of `COc1cc(Cc2cnc(N)nc2N)cc(-c2cccc(NS(=O)(=O)c3ccc(N)cc3)c2)c1OC`, the melting point lay within 223 to 226 °C.

Take `O=C(NCc1ccc(Cl)cc1)c1cn2c3c(cc(CN4CCOCC4)cc3c1=O)OC(CN1CCCC1)C2` (stereo unspecified): the melting point is 210 to 212 °C.

Compound `CCCCOc1ccc(S(=O)(=O)C2(C(=O)O)CCN(Cc3ccccc3)CC2)cc1` showed a melting point of 144 °C.

Compound `COC(=O)C1=C(C)NC(C)=C(C(=O)OCCN(C)C)C1c1cccc2nonc12` (stereo unspecified) registered a melting point of 99 °C.

Compound `CCNS(=O)(=O)c1ccc(C2=C(c3cccc(F)c3)C(=O)C(C)(C)O2)cc1` yielded a melting point of 113 to 114 °C.

The compound `Nc1ccc(Sc2ccccc2)cc1C(F)(F)F` registered a melting point of 63 to 66.5 °C.

Take `CC(=O)N1CCC(C)(C)c2cc(F)cc(CCN3CCN(c4noc5ccccc45)CC3)c21`: the melting point was 112 °C.

Turning to `C[C@@H](N(CC(=O)O)C(=O)c1ccc(C(F)(F)F)cc1)[C@](O)(Cn1cncn1)c1ccc(F)cc1F`, the melting point fell in the range of 132 to 135 °C.

In turn, `Cc1ncn(-c2nccc3[nH]c(=O)ccc23)n1` yielded a melting point greater than 300 °C.

For the compound `CCOc1csc2c(=O)c(S(C)=O)cn(C)c12` (stereo unspecified), the melting point fell in the range of 210 to 214 °C.

On to `C=CC(=O)N1C/C(=C\c2ccc([N+](=O)[O-])cc2)C(=O)/C(=C/c2ccc([N+](=O)[O-])cc2)C1`, for which the melting point lay within 170 to 172 °C.

Take `N#CC(C#N)=CN(Cc1ccc(Cl)c(Cl)c1)c1cc(C(F)(F)F)cc(C(F)(F)F)c1`: the melting point lay in the range of 102 to 103 °C.

As to `COCCOc1cc2c(cc1-c1ccccc1F)NC(=O)CC(c1cccc(C#N)c1)=N2`, the melting point lay in the range of 211 to 213 °C.

As to `CC(C)NCCNc1nc(Nc2cccc(NS(C)(=O)=O)c2)nc2[nH]ccc12`, the melting point is 127 to 131 °C.

As to `CCC/C(=C\C=C\C(=O)O)c1ccc(OC)cc1`, the melting point was 151 to 152 °C.

Consider `CCOC(=O)c1c(N)c2cccnc2n(CC)c1=O`, for which the melting point lay in the range of 205 to 208 °C.

Turning to `CCC(CC)Nc1cc(C)nc(Oc2c(C)cc(C)cc2C)c1C(N)=O`, the melting point was in the range of 85 to 88 °C.

The compound `COCc1cc(-c2ncc3[nH]c4ccc(Cl)c(Cc5ccc(Cl)cc5)c4c3c2COC)no1` displayed a melting point of 198 to 200 °C.

As to `CCCCc1nc(C(F)(F)F)c(CO)n1Cc1ccc(-c2ccccc2C#N)cc1`, the melting point fell in the range of 136 to 138 °C.

In turn, `CCOCCn1c(N2CCCN(CCC3(c4cccc(Cl)c4)CCN(C(=O)c4cc(OC)c(OC)c(OC)c4)C3)CC2)nc2ccccc21` (stereo unspecified) registered a melting point of 66 to 78 °C.

In turn, `CS(=O)(=O)c1nc(Cl)cc(Nc2ccc(C(F)(F)F)cc2)n1` yielded a melting point of 184 to 186 °C.

The compound `C[C@@H]1C(=O)C=CN2c3ccccc3CC[C@@H]12` (relative stereo) came in with a melting point of 148 to 150 °C.

As for `CC(=O)NCC1CN(c2ccc(N3CCC(C(C#N)CO)CC3)c(F)c2)C(=O)O1` (stereo unspecified), the melting point lay in the range of 136 to 138 °C.

`COC(=O)c1cnn(-c2c(Cl)cc(Cl)cc2Cl)c1N` had a melting point of 179 to 180 °C.

In turn, `O=C(NC(=O)c1c(F)cccc1Cl)Nc1ccc(Br)cn1` registered a melting point of 207 to 213 °C.

Take `CCOC(=O)c1[nH]c(C)c(C)c1OCC1CO1` (stereo unspecified): the melting point was in the range of 70 to 71 °C.

Turning to `OC1CCCc2nc3ccccc3c(NCc3ccc(F)cc3)c21` (stereo unspecified), the melting point came out at 170 °C.

The compound `Cc1cc(C)c2cccc(OCc3c(Cl)ccc(S(=O)(=O)N4CCC[C@H]4C(=O)N4CCN(C(=O)c5ccc(C(N)=NO)cc5)CC4)c3Cl)c2n1` displayed a melting point of 161 °C.

Regarding `COC1=NS(=O)N=C1NCCCCc1ncc(Br)cc1N` (stereo unspecified), the melting point is 118 to 120 °C.

Take `COc1ncc(C(F)(F)F)cc1-c1cccn2nc(Cl)nc12`: the melting point was in the range of 183 to 185 °C.

Consider `OCC1(c2c[nH]cn2)Cc2ccccc2C1`, for which the melting point lay within 181 to 184 °C.

`CCCCC(O)CN1N=CCCC1c1ccc(F)cc1` (stereo unspecified): the melting point fell in the range of 75 to 77 °C.

Regarding `O=C(O)C1CCc2sc3ccccc3c2C1` (stereo unspecified), the melting point is 202 to 203 °C.

`ClC1=Nc2ccccc2Oc2ccccc21` showed a melting point of 53 to 55 °C.

For `CSc1ncc(S(=O)(=O)NC(C)(C)C)c(Nc2cccc(C)c2)n1`, the melting point was 178 °C.

The compound `CCCc1c(OCCCCCOc2ccc(CCC(=O)O)cc2CCC(=O)O)ccc2c1OCCC2=O` gave a melting point of 108 to 109 °C.

`COc1cc(C(=O)c2cnc(Cl)nc2Cl)cc(OC)c1OC` displayed a melting point of 140 to 141 °C.

For the compound `NC(=O)CCCC1Cc2ccccc2C1`, the melting point lay within 116 to 118 °C.

Take `CC(C)(C)c1ccc(S(=O)(=O)C[N+](=O)[O-])cc1`: the melting point is 90 to 91 °C.

As to `CC(=O)c1ccc(OCCCOc2cc([N+](=O)[O-])c(C)cc2Br)c(CCC(F)(F)F)c1O`, the melting point is 106 to 109 °C.

In turn, `CCO/C(=N/O)C1Cc2cc(C(=O)c3ccccc3F)c(O)c(C)c2O1` (stereo unspecified) yielded a melting point of 70 to 71 °C.

In turn, `Nc1n[nH]cc1-c1ccc(Cc2ccccc2)cc1` returned a melting point of 127 to 130 °C.

`Nc1ccc(Nc2ccc(S(=O)(=O)CCO)cc2[N+](=O)[O-])cc1S(=O)(=O)O`: the melting point came to 204 °C.

On to `CCOC(=O)CC(c1ccccc1)N(C(=O)CNC(=O)Nc1cccc(C)c1)c1ccccc1` (racemic), for which the melting point is 146 °C.

In turn, `CCc1nc2cc(F)ccc2c(=O)n1NC(=O)C(C)c1ccccc1` (stereo unspecified) returned a melting point of 57 to 63 °C.

The compound `COc1ccc(SC(C)(CC=C(C)C)C(=O)NO)cc1` (stereo unspecified) had a melting point of 89 °C.

For the compound `BrCCCCCCOc1ccc(C2c3ccc(OCc4ccccc4)cc3OCC2c2ccccc2)cc1` (stereo unspecified), the melting point lay in the range of 96.2 to 96.7 °C.

`Cn1nc2ccccc2c1C(=O)NC1CCN(Cc2ccccc2)CC1`: the melting point was in the range of 167 to 169 °C.

On to `Cc1cc(-n2c(C)ccc2-c2ccc(S(C)(=O)=O)cc2)ccc1-c1ccco1`, for which the melting point lay within 160 to 162 °C.

`CCCC(c1ccccc1)c1ccc(-c2cnn3c(O)ncnc23)cc1` (stereo unspecified) yielded a melting point of 280 to 285 °C.

As for `CC#CCCCCCCCCCCCC`, the melting point lay in the range of 36 to 37 °C.

With `CC1(C)OC(C=Cc2cc3ccccc3s2)=CC1=O`, the melting point came to 104 °C.

`Cc1c(C)c2c(c(C)c1NC(=O)c1cccs1)C(c1ccc(C(C)C)cc1)C(C)(C)O2` (stereo unspecified) showed a melting point of 222 to 224 °C.

As for `O=C(O)c1ccc(N(CCOc2cccc3ccccc23)C(=O)C(F)(F)F)cc1`, the melting point fell in the range of 167 to 168 °C.

Values taken from a melting point compilation (Tetko et al.; mined from patent text by program, amines drawn as free bases though some values may be those of a salt).
